Source: patent publication US20080267948A1, “Croos-B Structure Binding Compounds” (priority 2005, published 2008)
Entries after “also recorded” stand apart in the source; their conditions may differ.

Legend:
Hb-AGE = target: T1, Hb-AGE (Homo sapiens, UniProt P68871+P69905); assay: ELISA binding of tPA to immobilized Hb-AGE after pre-incubation with compounds; conditions: Hb-AGE first overlayed with compound (concentration series), then tPA
T1 construct: purchased Sigma-Aldrich H7379
Procedure: Compounds were now diluted 10× in PBS/0.1% Tween20 (500 μg/ml compound). […] With the selection, similar binding assays are performed with misfolded OVA and Aβ. Finally, concentration series of the selected compounds are used in the binding studies.

amyloid-β(1-40) E22Q = target: T2, amyloid-β(1-40) E22Q (Homo sapiens, UniProt P05067, E693Q); assay: ELISA binding of tPA to immobilized Aβ after pre-incubation with compounds; conditions: Aβ first overlayed with compound (concentration series), then tPA
T2 construct: For similar ELISA's with DOVA and Aβ(1-40) E22Q, 1 μg/ml DOVA or Aβ was coated; purchased Peptide facility, Dutch Cancer Institute, Amsterdam; host or cells: synthetic peptide
T2 sequence (P05067 672-711 E693Q): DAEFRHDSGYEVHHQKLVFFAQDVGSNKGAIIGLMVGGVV
Procedure: Compounds were now diluted 10× in PBS/0.1% Tween20 (500 μg/ml compound). […] With this approach a further selection of the compounds was achieved. Now, compounds that at least interact with HB-AGE are selected. With the selection, similar binding assays are performed with misfolded OVA and Aβ. Finally, concentration series of the selected compounds are used in the binding studies.

heat-denatured ovalbumin = target: T3, heat-denatured ovalbumin (Gallus gallus, UniProt P01012); assay: Thioflavin T fluorescence of ovalbumin and small compounds; parameters: species or system chicken; conditions: 1 mg/ml compound, 1 mg/ml OVA
T3 construct: purchased Sigma A5503
T3 sequence (P01012 1-386): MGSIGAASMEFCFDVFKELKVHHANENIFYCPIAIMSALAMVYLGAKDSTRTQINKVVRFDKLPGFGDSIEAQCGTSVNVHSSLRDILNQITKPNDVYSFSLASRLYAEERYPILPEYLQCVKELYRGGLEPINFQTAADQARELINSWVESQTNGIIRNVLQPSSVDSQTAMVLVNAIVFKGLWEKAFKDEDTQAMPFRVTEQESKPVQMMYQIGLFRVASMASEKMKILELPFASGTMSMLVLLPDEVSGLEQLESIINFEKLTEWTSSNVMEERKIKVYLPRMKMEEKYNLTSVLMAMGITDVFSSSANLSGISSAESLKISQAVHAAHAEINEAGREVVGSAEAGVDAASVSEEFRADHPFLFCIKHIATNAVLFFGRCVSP
Procedure: To establish the enhancement of Thioflavin T fluorescence by ovalbumin preparations, 90 μl of 25 μM ThT-solution in 50 mM Glycine buffer (pH 9.0) was added to 10 μl sample in duplicate wells of black 96-wells plates. Heat-denatured ovalbumin at 1 mg/ml in PBS with no addition, DMSO at a final concentration of 1% v/v, or 1 mg/ml of the compounds listed in Table 7, was used. Compound stocks are 100 mg/ml in DMSO. In addition, ovalbumin at 1 mg/ml with the same additions was first heat denatured and subsequently used in the fluorescence assay. Heat denaturation was according to the protocol given above. Fluorescence of duplicates was measured on a Thermo Fluoroskan Ascent 2.5, at 435 nm excitation and 485 nm emission wavelengths.

human blood platelets = assay: Platelet aggregation (aggregometric assay with washed platelets); format: cell-based
Procedure: The influence of amyloid-β(1-40) E22Q Dutch type (Aβ) peptide aggregates with cross-β structure conformation on blood platelet aggregation was tested with washed platelets in an aggregometric assay. Freshly drawn human aspirin free blood was mixed gently with citrate buffer to avoid coagulation. Blood was spinned for 15′ at 150*g at 20° C. and supernatant was collected; platelet rich plasma (PRP). […] After spinning down the platelets upon centrifugation for 15′ at 330*g at 20° C., the pellet was resuspended in HEPES-Tyrode buffer pH 6.5. Prostacyclin was added to a final concentration of 10 ng/ml, and the solution was centrifuged for 15′ at 330*g at 20° C., with a soft brake. The pellet was resuspended in HEPES-Tyrode buffer pH 7.2 in a way that the final platelet number was adjusted to 200,000/μl. Platelets were kept at 37° C. for at least 30′, before use in the assays, to ensure that they were in the resting state.
Aggregation of platelets was monitored in an aggregometer (Chrono-Log Corporation, Havertown, Pa., USA) for 15 minutes at 37° C. with a magnet stirring speed of 900 rpm. First, 270 μl of platelet solution was pipetted in the cuvettes and after 1 minute of stirring, 30 μl of preincubated (5 minutes, RT) Aβ and Hematein solution or control was added. The hematein stock was 10 mg/ml in HEPES-Tyrode buffer. The Aβ stock was 1 mg/ml. For blank readings unstirred HEPES Tyrode buffer was used. The aggregation is expressed as the percentage of the light transmission (0-100%). As a positive control, synthetic thrombin receptor activating peptide (TRAP) induced platelet aggregation was used. A control experiment was performed to study the influence of the red colour of hematein on the light transmission. For this, 4 μM TRAP was added at time 1 minute to the platelets, then hematein was added after 6 minutes of aggregation. The platelets were used for not more than 4 hours after isolation to reduce variations in sensitivity amongst subsequent measurements.
Ellagic acid was first dissolved to 100 mg/ml in DMSO, and then further diluted to 1 mg/ml in HBS buffer. Final concentrations of Aβ and ellagic acid in the aggregation assay were 50 μg/ml and 25/50 μg/ml, respectively. In addition, the influence of ellagic acid alone on platelet aggregation was tested. As a control, the influence of 0.08% DMSO on 50 μg/ml Aβ-induced platelet aggregation was analyzed. The 100% DMSO of the ellagic acid stock was diluted 2000 and 4000×, resulting in […] final DMSO concentrations in the aggregation assay.

tPA/plasminogen [1] = target: T4, tPA/plasminogen (Homo sapiens, UniProt P00750); assay: tPA/plasminogen activation by OVA heated in the presence of compounds (substrate PNAPEP1751); format: biochemical; conditions: 25 μg/ml OVA, 25 μg/ml compound, […] DMSO
T4 construct: purchased Boehringer Ingelheim Actilyse
T4 sequence (P00750 36-562): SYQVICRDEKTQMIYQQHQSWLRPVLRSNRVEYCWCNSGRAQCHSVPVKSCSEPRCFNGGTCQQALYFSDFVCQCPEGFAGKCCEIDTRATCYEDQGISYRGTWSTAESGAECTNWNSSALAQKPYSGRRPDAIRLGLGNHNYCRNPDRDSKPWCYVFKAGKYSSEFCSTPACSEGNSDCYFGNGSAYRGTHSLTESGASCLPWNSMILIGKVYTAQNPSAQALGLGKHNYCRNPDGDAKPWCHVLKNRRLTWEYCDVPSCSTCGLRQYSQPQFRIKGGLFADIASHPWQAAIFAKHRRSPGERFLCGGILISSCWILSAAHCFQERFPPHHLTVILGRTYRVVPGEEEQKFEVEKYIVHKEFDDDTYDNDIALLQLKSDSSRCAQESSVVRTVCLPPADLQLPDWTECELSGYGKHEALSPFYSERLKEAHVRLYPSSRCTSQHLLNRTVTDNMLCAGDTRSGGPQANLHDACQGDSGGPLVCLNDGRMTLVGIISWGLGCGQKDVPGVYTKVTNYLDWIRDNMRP
Procedure: Heated OVA, either in PBS/1% DMSO (positive control), or in the same buffer in the presence of 1 mg/ml of the compounds, was used 40-fold diluted in the assay. Negative control was buffer without OVA. […] In addition, it was assessed whether the compounds interfere with absorbance readings at 405 nm, with converted chromogenic substrate. […] The yellow solution is divided over wells of an ELISA plate. […] Signals are compared and related to the control.

tPA/plasminogen [2] = target: T4, tPA/plasminogen; assay: tPA/plasminogen activation by pre-formed misfolded OVA in the presence of compounds; format: biochemical; conditions: 80-fold or 160-fold diluted compound and misfolded OVA stocks of 1 mg/ml
Procedure: […] Negative control was buffer without OVA. […] In addition, it was assessed whether the compounds interfere with absorbance readings at 405 nm, with converted chromogenic substrate. […] The yellow solution is divided over wells of an ELISA plate. […] Signals are compared and related to the control.

ovalbumin = target: T5, ovalbumin (Gallus gallus, UniProt P01012); assay: Transmission electron microscopy of ovalbumin heated in the presence of small compounds; parameters: species or system chicken; conditions: 1 mg/ml ovalbumin heated with 1 mg/ml compound
T5 construct: purchased Sigma A5503
T5 sequence (P01012 1-386): T3 sequence (P01012 1-386)
Procedure: For TEM analyses grids were prepared according to standard procedures. Ovalbumin samples at 1 mg/ml were applied to 100-mesh copper grids with carbon coated Formvar (Merck, Germany), and subsequently washed with PBS and H2O. Grids were applied to droplets of 2% (m/v) methylcellulose with 0.4% (m/v) uranylacetate pH 4. After a 2-minutes incubation grids were dried on a filter. Images were recorded at 80 kV, at suitable magnifications on a JEM-1200EX electron microscope (JEOL, Japan).

tPA = tPA (Homo sapiens, UniProt P00750); assay: tPA serine protease activity with OVA heated in the presence of compounds (substrate S-2765); format: biochemical; parameters: purchased Boehringer Ingelheim Actilyse; conditions: OVA heated with 1 mg/ml compound, 80-, 160- or 320-fold diluted, 100 nM tPA
Chain of tPA (P00750 36-562): as above
Procedure: For this purpose, the influence of the compounds on heat-denaturation of OVA was analyzed (see above: Thioflavin T fluorescence measurements). Heated OVA at 1 mg/ml in PBS in the presence or absence of 1 mg/ml of the twelve compounds listed in Table 7 in PBS/DMSO (final DMSO concentration 1%) was used 80-fold or 160-fold or 320-fold diluted (final heated OVA concentration and compound concentration was 12.5 or 6.3 or 3.1 μg/ml; final DMSO concentration was 0.013% and 0.006% and 0.003%).

T1 sequence (P69905 2-142 limits assumed): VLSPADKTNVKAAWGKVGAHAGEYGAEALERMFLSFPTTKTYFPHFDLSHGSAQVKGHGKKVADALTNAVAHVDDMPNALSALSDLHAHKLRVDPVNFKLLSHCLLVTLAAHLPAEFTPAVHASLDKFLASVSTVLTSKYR
T1 sequence (P68871 2-147 limits assumed): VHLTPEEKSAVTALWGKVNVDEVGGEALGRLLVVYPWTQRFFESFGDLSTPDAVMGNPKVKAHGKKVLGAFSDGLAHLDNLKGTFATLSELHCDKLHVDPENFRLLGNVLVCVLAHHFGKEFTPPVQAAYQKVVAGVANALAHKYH

`O=C1C=C2CC3(O)COc4c(ccc(O)c4O)C3=C2C=C1O` (stereo not shown) [compound 152, Hematein] was tested, and the “influence on tPA binding to immobilized Hb-AGE” value (Hb-AGE) was “Inhibited tPA binding to immobilized misfolded protein (Hb-”, the “influence on tPA binding to immobilized Aβ” value (amyloid-β(1-40) E22Q) was “Stimulated tPA binding to immobilized misfolded protein (Aβ,” and the “influence on Thioflavin T fluorescence with misfolded OVA” value (heat-denatured ovalbumin) was “Inhibition on Thioflavin T fluorescence with misfolded OVA”. For the same compound, the “influence on Aβ induced platelet aggregation” value (human blood platelets; 100 μg/ml Aβ and 333 μg/ml haematein added together) was “almost completely blocked; also recorded: potent inhibitor of misfolded Aβ-induced platelet aggregation; also recorded: Inhibition of Aβ-induced platelet aggregation”, the “reduction of TRAP-induced platelet aggregation” value (human blood platelets; TRAP and haematein pre-mixed) was “approximately 10%” and the “influence on tPA/plasminogen activation by OVA pre-heated in the presence of compound” value (tPA/plasminogen [1]) was “Inhibition of tPA/plasminogen activation by OVA pre-heated”. The “influence on tPA/plasminogen activation by pre-formed misfolded OVA” value (tPA/plasminogen [2]) was “Full block of tPA/plasminogen activation by misfolded OVA”, the “appearance of ovalbumin heated in the presence of compound on TEM image” value (ovalbumin; listed as Haematein) was “No large aggregates. Small aggregates at a lower” and the “appearance of ovalbumin heated in the presence of compound on TEM image” value (ovalbumin; listed as haematein) was “less OVA aggregates after heating in the presence of the”. For the same compound, the “influence on tPA protease activity of OVA heated in the presence of compound” value (tPA) was “Potentiation of tPA protease activity”.
